Key:
[1] = tested on: mice carrying inherited or chemically-induced ataxia mutations; conditions: Saigoh et al. 1998, cited from earlier work; for Concentration of endogenous D-serine in the cerebellum: ataxic mutant mice; for Effect on ataxia: mice carrying inherited or chemically-induced ataxia mutations
[2] = tested on: C57B16 mice; assay: Delayed eyeblink conditioning test (dEBC); assay type: in vivo, mouse; conditions: Group E, scopolamine 0.3 mg/kg subcutaneous
Source text: Three-month old, male C57B16 mice were implanted with recording electrodes in the orbicularis oculi muscle and with stimulating electrodes on the supraorbital nerve. For classical conditioning, animals were presented with a 350-ms tone as a conditioned stimulus (CS) at the end of which received an electrical pulse in the supraorbital nerve as unconditioned stimulus (US). Classical conditioning was achieved using a delay paradigm. For this, a tone (350 ms, 2 kHz, 85-90 dB) was presented as CS. The US consisted of a paired pulse with 1 millisecond of inter-pulse interval. Each pulse lasted for 0.1 millisecond. The US was presented at the end of the CS. A total of two habituation, ten conditioning, and five extinction sessions were carried out for each animal. Further details of this method can be found in the article by Gruart A., “Involvement of the CA3-CA1 synapse in the acquisition of associative learning in behaving mice”, J. Neurosci., 2006, 26, 1077-1087.
The effects on associative learning of a DAAO inhibitor compound of the invention were compared against different control and scopolamine-administered groups. Scopolamine is io a non-selective muscarinic receptor antagonist shown to consistently produce impairment of learning in rodents (see Klinkenberg, A., “The validity of scopolamine as a pharmacological model for cognitive impairment: A review of animal behavioral studies” Neuroscience and Biobehavioral Reviews, 2010, 34, 1307-1350.
is Nine groups, each containing 15 mice except for the untreated control group which contained 14 mice, were tested:
Group A was orally administered with Vehicle 1 (an aqueous solution of 0.5% methyl cellulose);
Group B was orally administered with a solution of a DAAO inhibitor of formula (I) in Vehicle 1 at a dose of 0.1 mg/kg (Solution 1);
Group C was orally administered with a solution of a DAAO inhibitor of formula (I) (the same one as for Group B) in Vehicle 1 at a dose of 1.0 mg/kg (Solution 2);
Group D was administered subcutaneously with Vehicle 2 (distilled water);
Group E was administered subcutaneously with a solution of scopolamine in Vehicle 2 at a dose of 0.3 mg/kg (Solution 3);
Group F was administered orally with Solution 1 and subcutaneously with Solution 3;
Group G was administered orally with Solution 2 and subcutaneously with Solution 3;
Group H was administered orally with Vehicle 1 and subcutaneously with Vehicle 2;
Group I was the untreated control group.

Row | SMILES | Concentration of endogenous D-serine in the cerebellum [1] | Effect on ataxia [1] | Mean Percentage of Conditioned Responses (%) ([2]; conditioning session 1) | Mean Percentage of Conditioned Responses (%) ([2]; conditioning session 2) | Mean Percentage of Conditioned Responses (%) ([2]; conditioning session 3) | Mean Percentage of Conditioned Responses (%) ([2]; conditioning session 4) | Mean Percentage of Conditioned Responses (%) ([2]; conditioning session 5) | Mean Percentage of Conditioned Responses (%) ([2]; conditioning session 6) | Mean Percentage of Conditioned Responses (%) ([2]; conditioning session 7) | Mean Percentage of Conditioned Responses (%) ([2]; conditioning session 8) | Mean Percentage of Conditioned Responses (%) ([2]; conditioning session 9) | Mean Percentage of Conditioned Responses (%) ([2]; conditioning session 10) | Mean Percentage of Conditioned Responses (%) ([2]; extinction session 1) | Mean Percentage of Conditioned Responses (%) ([2]; extinction session 2) | Mean Percentage of Conditioned Responses (%) ([2]; extinction session 3) | Mean Percentage of Conditioned Responses (%) ([2]; extinction session 4) | Mean Percentage of Conditioned Responses (%) ([2]; extinction session 5) | Mean Percentage of Conditioned Responses (%) ([2]; habituation session 1) | Mean Percentage of Conditioned Responses (%) ([2]; habituation session 2)
1 | CCOC(=O)[C@H](N)CO [D-serine ethylester] | increase in the concentration of endogenous D-serine in the cerebellum | ameliorating effect on ataxia | – | – | – | – | – | – | – | – | – | – | – | – | – | – | – | – | –
2 | CN1[C@@H]2C[C@@H](OC(=O)[C@H](CO)c3ccccc3)C[C@H]1[C@@H]1O[C@@H]12 [scopolamine] | – | – | 37.67% | 40.33% | 43.78% | 43.33% | 45.67% | 45.98% | 48.78% | 51.56% | 51.33% | 52.56% | 51.22% | 45.78% | 43.78% | 42.00% | 43.22% | 26.44% | 27.44%
3 | N[C@@H]1CONC1=O [D-cycloserine] | increase in the concentration of endogenous D-serine in the cerebellum | ameliorating effect on ataxia | – | – | – | – | – | – | – | – | – | – | – | – | – | – | – | – | –

— patent US20170014407A1, “PYRIDAZINE DERIVATIVES FOR USE IN THE PREVENTON OR TREATMENT OF AN ATAXIC DISORDER” (TAKEDA PHARMACEUTICAL COMPANY LIMITED, priority 2014, published 2017)
